Like-named read-outs stand apart in the source and are kept apart here.
Experiments:
[1] = culture medium; cited from earlier work
[2] = calculated using ACD logD, pH 7.4; cited from earlier work
[3] = cited from earlier work; for E(1): one electron reduction potential
[4] = tested on: anoxic HT29 cell suspensions; assay: Rate constant for metabolic consumption kmet in anoxic single cell suspensions; format: in vitro ADME; settings: scaled to the cell density in MCLs
[5] = One electron reduction potential E; format: physicochemical; settings: anaerobic aqueous solution, pH 7.0, pulse radiolysis
[6] = tested on: anoxic HT29 tumor tissue; assay: Penetration half distance X½ calculated from D and kmet; settings: for EVT based on X½ (in words): compared with TPZ
[7] = tested on: SiHa cells; settings: cited from earlier work
[8] = side chain, calculated using ACD pKa; cited from earlier work
[9] = tested on: anoxic HT29 cell suspensions; settings: scaled to MCL cell density; cited from earlier work
[10] = tested on: HT29 cells; settings: read-out: HT29 IC50 hypox; HT29, anoxic; cited from earlier work
[11] = tested on: HT29 MCLs; settings: calculated; cited from earlier work
[12] = tested on: HT29 cells; assay: IC50 assay, 4 h drug exposure under aerobic and anoxic conditions, HT29; format: cell-based; settings: criterion HCR > 20 in the PK/PD model

SMILES: Nc1n[n+]([O-])c2ccccc2[n+]1[O-] [compound 1, tirapazamine]
- Sol. [1]: 9 mM
- logP7.4 calc [2]: −0.33
- E(1) [3]: −456 mV

SMILES: CN(C)CCNc1n[n+]([O-])c2c3c(ccc2[n+]1[O-])OCCC3 [TTO 29]
- kmet (first order rate constant for metabolism) [4]: 0.59 min⁻¹

SMILES: [O-][n+]1nc(NCCCN2CCOCC2)[n+]([O-])c2cc3c(cc21)CCC3 [TTO 8]
- kmet (first order rate constant for metabolism) [4]: 0.19 min⁻¹

SMILES: CCN(CC)CCNc1n[n+]([O-])c2cc3c(cc2[n+]1[O-])CCC3 [TTO 5]
- kmet (first order rate constant for metabolism) [4]: 1.08 min⁻¹

SMILES: [O-][n+]1nc(NCCN2CCCCC2)[n+]([O-])c2cc3c(cc21)CCC3 [TTO 7]
- kmet (first order rate constant for metabolism) [4]: 1.25 min⁻¹

SMILES: CCCN(CCC)CCNc1n[n+]([O-])c2cc3c(cc2[n+]1[O-])CCC3 [TTO 6]
- kmet (first order rate constant for metabolism) [4]: 1.07 min⁻¹

SMILES: [O-][n+]1nc(NCCN2CCCCC2)[n+]([O-])c2ccc3c(c21)CCC3 [TTO 12]
- kmet (first order rate constant for metabolism) [4]: 1.60 min⁻¹

SMILES: CN(C)CCNc1n[n+]([O-])c2cc3c(cc2[n+]1[O-])OCC3 [TTO 23]
- kmet (first order rate constant for metabolism) [4]: 0.60 min⁻¹
- E(1) [5]: −545 mV

SMILES: CCCN(CCC)CCNc1n[n+]([O-])c2c3c(ccc2[n+]1[O-])CCC3 [TTO 11]
- kmet (first order rate constant for metabolism) [4]: 0.73 min⁻¹

SMILES: CCc1n[n+]([O-])c2cc3c(cc2[n+]1[O-])CC(CCO)C3 (centres unmarked) [TTO 38]
- kmet (first order rate constant for metabolism) [4]: 0.54 min⁻¹

SMILES: [O-][n+]1nc(NCCCN2CCOCC2)[n+]([O-])c2cc3c(cc21)OCC3 [TTO 21]
- kmet (first order rate constant for metabolism) [4]: 0.20 min⁻¹
- EVT based on X½ (in words) [6]: predicted to display improved EVT

SMILES: CC1Cc2cc3c(cc2C1)[n+]([O-])c(CCCO)n[n+]3[O-] (centres unmarked) [TTO 33]
- kmet (first order rate constant for metabolism) [4]: 0.24 min⁻¹

SMILES: [O-][n+]1nc(CCCN2CCOCC2)[n+]([O-])c2cc3c(cc21)CC(CO)C3 (centres unmarked) [TTO 37]
- kmet (first order rate constant for metabolism) [4]: 0.90 min⁻¹
- E(1) [5]: −408 mV

SMILES: [O-][n+]1nc(NCCCN2CCOCC2)[n+]([O-])c2cc3c(cc21)CCO3 [TTO 25]
- kmet (first order rate constant for metabolism) [4]: 0.23 min⁻¹
- EVT based on X½ (in words) [6]: predicted to display improved EVT

SMILES: CCc1n[n+]([O-])c2cc3c(cc2[n+]1[O-])CC(CCN1CCOCC1)C3 (centres unmarked) [TTO 39]
- kmet (first order rate constant for metabolism) [4]: 0.54 min⁻¹
- X½ (penetration half distance) ([6]; anoxic HT29 tumor tissue, from D and kmet): 100 μm
- E(1) [5]: −431 mV

SMILES: COc1ccc2c(c1)[n+]([O-])c(NCCN(C)C)n[n+]2[O-] [compound 2]
- SiHa HCR ([7]; oxic IC50/hypoxic IC50): 232
- IC50 ([7]; read-out: SiHa IC50 hypox, anoxic): 2.9 µM
- Sol. [1]: 46 mM
- pKa [8]: 8.5
- kmet (first order rate constant for metabolism) [9]: 0.54 min⁻¹
- logP7.4 calc [2]: −0.07
- IC50 [10]: 7.7 µM
- E(1) [3]: −500 mV
- lowering of E(1) by 6-OMe substituent ([3]; relative to the 3-dimethylaminoethylamine BTO): 104 mV
- D calc (diffusion coefficient in HT29 MCLs) [11]: 2.9 ×10^−7 cm^2s^−1

SMILES: CCN1Cc2cc3c(cc2C1)[n+]([O-])c(N)n[n+]3[O-] [TTO 31]
- kmet (first order rate constant for metabolism) [4]: 2.20 min⁻¹
- E(1) [5]: −390 mV

SMILES: CN(C)CCNc1n[n+]([O-])c2cc3c(cc2[n+]1[O-])CCC3 [TTO 4]
- kmet (first order rate constant for metabolism) [4]: 0.44 min⁻¹
- E(1) [5]: −486 mV

SMILES: CC1Cc2cc3c(cc2C1)[n+]([O-])c(NCCCN1CCOCC1)n[n+]3[O-] (centres unmarked) [TTO 15]
- kmet (first order rate constant for metabolism) [4]: 0.13 min⁻¹

SMILES: CC1Cc2cc3c(cc2C1)[n+]([O-])c(NCCN(C)C)n[n+]3[O-] (centres unmarked) [TTO 14]
- kmet (first order rate constant for metabolism) [4]: 1.49 min⁻¹

SMILES: CCNc1n[n+]([O-])c2cc3c(cc2[n+]1[O-])CN(C)CC3 [TTO 32]
- E(1) [5]: −462 mV

SMILES: Nc1n[n+]([O-])c2cc3c(cc2[n+]1[O-])CCC3 [TTO 3]
- kmet (first order rate constant for metabolism) [4]: 0.47 min⁻¹

SMILES: [O-][n+]1nc(CCCN2CCOCC2)[n+]([O-])c2cc3c(cc21)CCO3 [TTO 40]
- kmet (first order rate constant for metabolism) [4]: 0.31 min⁻¹
- E(1) [5]: −468 mV

SMILES: CN(C)CCNc1n[n+]([O-])c2c3c(ccc2[n+]1[O-])CCC3 [TTO 9]
- kmet (first order rate constant for metabolism) [4]: 0.74 min⁻¹
- E(1) [5]: −480 mV

SMILES: Nc1n[n+]([O-])c2cc3c(cc2[n+]1[O-])OCC3 [TTO 22]
- hypoxic selectivity (in words) [12]: failed to pass the criterion for hypoxic selectivity (HCR > 20)

SMILES: CN(C)CCNc1n[n+]([O-])c2cc3c(cc2[n+]1[O-])CCCCC3 [TTO 19]
- kmet (first order rate constant for metabolism) [4]: 1.52 min⁻¹
- E(1) [5]: −488 mV

SMILES: [O-][n+]1nc(NCCCN2CCOCC2)[n+]([O-])c2ccc3c(c21)CCC3 [TTO 13]
- kmet (first order rate constant for metabolism) [4]: 0.20 min⁻¹
- E(1) [5]: −510 mV

SMILES: [O-][n+]1nc(NCCCN2CCOCC2)[n+]([O-])c2cc3c(cc21)CCCC3 [TTO 17]
- kmet (first order rate constant for metabolism) [4]: 0.69 min⁻¹

SMILES: CCc1n[n+]([O-])c2cc3c(cc2[n+]1[O-])CC(CN1CCOCC1)C3 (centres unmarked) [TTO 36]
- kmet (first order rate constant for metabolism) [4]: 0.54 min⁻¹

SMILES: CN(C)CCNc1n[n+]([O-])c2c3c(ccc2[n+]1[O-])CCCC3 [TTO 18]
- kmet (first order rate constant for metabolism) [4]: 1.78 min⁻¹

SMILES: CCc1n[n+]([O-])c2cc3c(cc2[n+]1[O-])CN(C)CC3 [TTO 41]
- E(1) [5]: −344 mV

SMILES: CCN(CC)CCNc1n[n+]([O-])c2cc3c(cc2[n+]1[O-])OCC3 [TTO 24]
- kmet (first order rate constant for metabolism) [4]: 0.26 min⁻¹
- EVT based on X½ (in words) [6]: predicted to display improved EVT

SMILES: CCN(CC)CCNc1n[n+]([O-])c2c3c(ccc2[n+]1[O-])CCC3 [TTO 10]
- kmet (first order rate constant for metabolism) [4]: 0.97 min⁻¹

SMILES: CCc1n[n+]([O-])c2cc3c(cc2[n+]1[O-])CC(CO)C3 (centres unmarked) [TTO 35]
- kmet (first order rate constant for metabolism) [4]: 0.47 min⁻¹
- E(1) [5]: −452 mV

From publication PMC2690574 (Journal of medicinal chemistry, 2008)
